Results reported in patent US20220193085A1, “METHODS OF THROMBOPROPHYLAXIS” (JANSSEN PHARMACEUTICALS, INC., priority 2020, published 2022).
“And” between values parts separate entries of the source, which are not always exact repeats. Identical values can stand only once. “Also recorded” adds a separate entry of the source. Like-named read-outs stand apart in the source and are kept apart here.

How the values were obtained:
[1] = UNIVERSE primary efficacy outcome: any thrombotic event (CIAC adjudicated); assay type: in vivo, pediatric patients; conditions: full analysis set
Source text: This study was a prospective, open-label, active-controlled, multicenter study designed to evaluate the PK and PK/PD profiles, safety, and efficacy of rivaroxaban for thromboprophylaxis in pediatric patients 2 to 8 years of age with single ventricle physiology who have completed the Fontan procedure within 4 months prior to enrollment. The trial was approved by the institutional review board of each participating institution, as well as the appropriate national ethics committee. Written informed consent for trial participation was obtained from the parent or guardian of each patient. An Independent Data Monitoring Committee (IDMC) ensured patients' safety throughout the trial. A Central Independent Adjudication Committee (CIAC) reviewed all efficacy and safety events.
Part B was the randomized, open-label, active-controlled part of the study that evaluated the safety and efficacy of twice daily administration of rivaroxaban compared to ASA (usual standard of care) for thromboprophylaxis for 12 months. Patients randomized to rivaroxaban also had PK and PD assessments.
Primary efficacy outcome: Any thrombotic event, venous or arterial, symptomatic or asymptomatic defined as: • The appearance of a new thrombus within the cardiovascular system on either routine surveillance or clinically indicated imaging, or • The occurrence of a clinical event known to be strongly associated with thrombus (e.g., stroke, pulmonary embolism).
All efficacy outcomes were adjudicated by the CIAC, blinded to assigned treatment.

[2] = as above; assay type: in vivo, pediatric patients; conditions: Part A N=12; up to end of treatment; full analysis set
factor Xa = experiment: UNIVERSE PK/PD: anti-Factor Xa activity vs plasma rivaroxaban concentration; assay type: in vivo, pediatric patients
Protocol: (§1) PT and aPTT were determined using an electromagnetic mechanical clot detection method at ARUP laboratory (Salt Lake City, Utah, USA). The PT assay was performed according to the manufacturers' instructions on the STA Compact Hemostasis Workstation (STA Compact coagulation analyzer) using one PT reagent (STA-Neoplastine CI Plus, Diagnostica Stago, Inc), with an International Sensitivity Index (ISI) of around 1.3. The primary read-out for PT was in seconds, as the International Normalization Ratio (INR) which allows for comparison of PT values regardless of the reagents and instruments used for its determination, is only calibrated and validated for VKA and cannot be used for any other anticoagulant without validation. The PT reportable range is between 10 and 120 seconds. […] The read-out for aPTT is in seconds with a reportable range between 5 and 180 seconds. Anti-Factor Xa activity was determined at Eurofins Biomnis (France). Anti-Factor Xa activity was measured using a one-step reaction based on the inhibitory effect of rivaroxaban against factor Xa's activity of generating thrombin from prothrombin after adding rivaroxaban into the plasma-substrate mixture using the STA-COMPACT MAX2® system (Diagnostica Stago, Asnieres-sur-Seine, France). […] The calibration range of the assay is 35 to 500 ng/mL, and the lower limit of quantification (LLOQ) is 35 ng rivaroxaban/mL. […]

clinical = conditions: human, plasma, oral
Protocol: (§2) Rivaroxaban was administered twice daily (BID) in an open-label fashion as a 0.1% (1 mg/mL) oral suspension based on weight as shown in Table 2 (not related to prandial state).
(§3) Blood samples were collected for PK (i.e., plasma rivaroxaban concentrations) and full PD (prothrombin time [PT], activated partial thromboplastin time [aPTT], and anti-factor Xa activity) assessments on the first day of dosing between 0.5 to 1.5 hours and again between 1.5 to 4.0 hours postdose. Additional samples were collected on Day 4, just prior to rivaroxaban administration (PK, PT, aPTT) and again between 0.5 to 1.5 hours (PK, PT, aPTT), 1.5 to 4.0 hours (PK, PT, aPTT), and 6.0 to 8.0 hours (PK and full PD) postdose. At Month 3, samples were collected just prior to rivaroxaban dosing (PK and full PD) and at 0.5 to 1.5 hours postdose (PK, PT, aPTT) and 2.5 to 4 hours postdose (PK, PT, aPTT). An additional random sample (PK, PT, and aPTT) was collected at Month 12.
(§4) In Part B, blood samples were collected for assessment of PT and aPTT before the first dosing; PK and full PD samples were collected between 0.5 to 1.5 hours and again between 1.5 to 4.0 hours after the first dose. At Month 3, PK and full PD samples were collected just prior to rivaroxaban administration and again between 0.5 to 1.5 hours, and 2.5 to 4.0 hours postdose. An additional random sample (PK, PT, and aPTT) was collected at Month 12.
(§5) Blood samples for PK or PD assays were centrifuged, and the resulting plasma samples were frozen and stored below −15° C. until analyzed. Rivaroxaban plasma concentrations were determined using the validated liquid chromatography/mass spectrometry/mass spectrometry (LC-MS/MS) method with a lower limit of quantitation (LLOQ) of 0.5 μg/L. The pharmacodynamic effects of rivaroxaban were assessed by evaluation of prothrombin time (PT), activated partial thromboplastin time (aPTT), and anti-Factor Xa activity (AXA).
(§6) Patients in Part A received their first dose of rivaroxaban oral suspension on Day 1 (on site) and then continued taking rivaroxaban twice daily for 12 days (+9 days) to achieve steady state. PK and PD samples were collected on Day 1 and Day 4 (+2 days) of rivaroxaban administration (Table 3).
(§7) Part A, individual empirical Bayesian post-hoc PK parameters were derived using the existing population PK model from the Einstein Jr program (with the NONMEM option: $ESTIMATION MAXEVAL=0).
(§8) The population PK model used for the rivaroxaban PK profile evaluation was based on the Einstein Jr program. The pharmacokinetics of rivaroxaban were described by a linear two-compartment model with first-order oral absorption and first-order elimination from the central compartment with the absorption rate constant (KA), apparent clearance of the central compartment (CL/F), apparent central volume of distribution (Vc/F), apparent peripheral volume of distribution (Vp/F), and transport rate between the central and peripheral compartments (CI) as structural model parameters. CL/F, Q/F, Vp/F, and Vc/F were fig. allometrically scaled with body weight. Inter-individual variability (IIV) was identified for KA and CL/F. Residual error was described by a proportional error model.

[3] = test system: prothrombin time (PT), activated partial thromboplastin time (aPTT); experiment: UNIVERSE PK/PD: PT and aPTT vs plasma rivaroxaban concentration; assay type: in vivo, pediatric patients; conditions: UNIVERSE vs adult studies ODIXa-HIP2 and ODIXa-KNEE
Protocol: as §1

[4] = 10 mg QD, N=140, cited from earlier work
[5] = UNIVERSE study: population PK and steady-state exposure of rivaroxaban in post-Fontan pediatric patients
Protocol: as §2, §3, §4, §5, §6, §7, §8

[6] = UNIVERSE adverse events, serious adverse events and treatment discontinuation; assay type: in vivo, pediatric patients
Source text: Other safety outcomes: Any adverse events and serious adverse events (SAES).

[7] = Part A N=12, up to end of treatment
[8] = Part B rivaroxaban N=64, aspirin N=34, up to end of treatment
[9] = rivaroxaban Part A+B total N=76, up to end of treatment
[10] = UNIVERSE Part A, weight-based dose regimen BID, N=12
[11] = UNIVERSE all patients, weight-based dose regimen BID, N=76
[12] = full UNIVERSE data-set, population PK model
[13] = full UNIVERSE data-set, subject with body weight of 15 kg
[14] = Part A N=12, treatment-emergent, safety set
[15] = Part B rivaroxaban N=64, aspirin N=34, safety set
[16] = Part B rivaroxaban N=64, aspirin N=34, treatment-emergent, safety set
[17] = Part B rivaroxaban N=64, aspirin N=34, up to end of treatment, full analysis set

Q: Which “Ischemic stroke, subjects n (%)” value [1, 7] does the source give for O=C(NC[C@H]1CN(c2ccc(N3CCOCC3=O)cc2)C(=O)O1)c1ccc(Cl)s1 [Rivaroxaban, 5-chloro-N-({(5S)-2-oxo-3-[4-(3-oxo-4-morpholinyl)phenyl]-1,3,oxazolidin-5-yl}methyl)-2-thiophenecarboxamide] here?
A: 0

Q: And the “Other thrombosis, subjects n (%)” value [1, 7]?
A: 0

Q: What about the “All-cause mortality, No. of subjects with event” value [1, 8] of the same molecule?
A: 0

Q: And the “Any thrombotic event (primary efficacy outcome), % of subjects” value [1, 8]?
A: (1.6%)

Q: And the “Arterial/intracardiac thrombosis, subjects n (%)” value [1, 8]?
A: 0

Q: What about the “Ischemic stroke, subjects n (%)” value [1, 8] of the same molecule?
A: 0

Q: And the “Other thrombosis, subjects n (%)” value [1, 8]?
A: 0

Q: What about the “Pulmonary embolism, % of subjects” value [1, 8] of the same molecule?
A: (1.6%)

Q: What about the “Venous thromboembolism, % of subjects” value [1, 8] of the same molecule?
A: (1.6%)

Q: And the “Venous thromboembolism, No. of subjects with event” value [1, 8]?
A: 1/64

Q: What about the “Venous thrombosis, subjects n (%)” value [1, 8] of the same molecule?
A: 0

Q: What about the “Any thrombotic event (primary efficacy outcome), % of subjects” value ([1]; rivaroxaban Part A+B total N=76) of the same molecule?
A: 3%

Q: And the “Arterial/intracardiac thrombosis, subjects n (%)” value [1, 9]?
A: 0

Q: What about the “Ischemic stroke, subjects n (%)” value [1, 9] of the same molecule?
A: 0

Q: What about the “Other thrombosis, subjects n (%)” value [1, 9] of the same molecule?
A: 0

Q: What about the “Arterial/intracardiac thrombosis, subjects n (%)” value [2] of the same molecule?
A: 0

Q: And the “Primary efficacy outcome (any thrombotic event), subjects n (%)” value [2]?
A: 1 (8.3%) and 1 (8%)

Q: And the “Pulmonary embolism, subjects n (%)” value [2]?
A: 0

Q: And the “Correlation (r) of anti-factor Xa with rivaroxaban plasma concentrations” value (factor Xa; UNIVERSE Part A)?
A: 0.932

Q: What about the “R-squared of anti-factor Xa activity vs plasma rivaroxaban concentrations” value (factor Xa; UNIVERSE study) of the same molecule?
A: 0.901

Q: And the AUC(0-t) (clinical)?
A: 1480 ng·h/mL

Q: And the Cmax (clinical)?
A: 124 ng/mL

Q: And the “PT vs rivaroxaban concentration compared with adult reference” value [3]?
A: within the 99% prediction range observed in the adult reference studies

Q: What about the “aPTT vs rivaroxaban concentration compared with adult reference” value [3] of the same molecule?
A: within the 99% prediction range observed in the adult reference studies; also recorded: less steep in comparison to adult reference

Q: What about the “AUC24h,ss geometric mean (90% CI)” value ([4]; Adult reference ODIXa-HIP-OD) of the same molecule?
A: 1494 ng·h/mL

Q: And the “AUC24h,ss median (range)” value ([4]; Adult reference)?
A: 1452 ng·h/mL

Q: What about the “Cmax,ss geometric mean (90% CI)” value ([4]; Adult reference) of the same molecule?
A: 125.8 ng/mL

Q: And the “Cmax,ss median (range)” value ([4]; Adult reference)?
A: 127.6 ng/mL

Q: What about the “Ctrough,ss geometric mean (90% CI)” value ([4]; Adult reference) of the same molecule?
A: 13.9 ng/mL

Q: What about the “Ctrough,ss median (range)” value ([4]; Adult reference) of the same molecule?
A: 14.3 ng/mL

Q: What about the “Individual values for AUCss,24h, Cmax,ss and Ctrough,ss vs adult reference range” value ([5]; UNIVERSE Part A) of the same molecule?
A: within the adult reference range

Q: And the “AUC24h,ss geometric mean (90% CI)” value [5, 10]?
A: 1698 ng·h/mL

Q: And the “AUC24h,ss median (range)” value [5, 10]?
A: 1718 ng·h/mL

Q: What about the “Cmax,ss median (range)” value [5, 10] of the same molecule?
A: 121.8 ng/mL

Q: What about the “Ctrough,ss geometric mean (90% CI)” value [5, 10] of the same molecule?
A: 28.6 ng/mL

Q: And the “Ctrough,ss median (range)” value [5, 10]?
A: 29 ng/mL

Q: And the “AUC24h,ss geometric mean (90% CI)” value [5, 11]?
A: 1440 ng·h/mL

Q: And the “Cmax,ss geometric mean (90% CI)” value [5, 11]?
A: 109.0 ng/mL

Q: And the “Cmax,ss median (range)” value [5, 11]?
A: 113.3 ng/mL

Q: What about the “Ctrough,ss geometric mean (90% CI)” value [5, 11] of the same molecule?
A: 22.8 ng/mL

Q: And the “Ctrough,ss median (range)” value [5, 11]?
A: 23.2 ng/mL

Q: And the “Body weight exponent for Vc/F” value [5, 12]?
A: 1.20

Q: What about the “First-order absorption rate constant” value [5, 12] of the same molecule?
A: 1.12 h⁻¹

Q: And the “CL/F (population PK estimate)” value [5, 13]?
A: 3.30 L/h

Q: What about the “Q/F (population PK estimate)” value [5, 13] of the same molecule?
A: 1.09 L/h

Q: What about the “Vc/F (population PK estimate)” value [5, 13] of the same molecule?
A: 17.6 L

Q: What about the “AEs related to Study Agent, n (%)” value ([6]; Part A N=12, safety set) of the same molecule?
A: 3 (25.0%)

Q: And the “SAEs related to Study Agent, n (%)” value ([6]; Part A N=12, safety set)?
A: 0

Q: What about the “TEAEs resulting in Permanent Discontinuation of Study Agent, n (%)” value ([6]; Part A N=12, safety set) of the same molecule?
A: 0

Q: What about the “Adverse event: Pleural Effusion, % of participants” value [6, 14] of the same molecule?
A: (25%)

Q: What about the “Adverse event: Pleural Effusion, n (%)” value [6, 14] of the same molecule?
A: 3

Q: And the “All TESAEs (subjects with 1 or more serious adverse events), % of subjects” value [6, 14]?
A: (50%)

Q: And the “Serious adverse event: Infections, % of participants” value [6, 14]?
A: (25%)

Q: What about the “Serious adverse event: Infections, n (%)” value [6, 14] of the same molecule?
A: 3

Q: And the “Serious adverse event: Pleural Effusion, % of participants” value [6, 14]?
A: (17%)

Q: What about the “Serious adverse event: Pleural Effusion, n (%)” value [6, 14] of the same molecule?
A: 2

Q: What about the “Serious adverse event: Respiratory, Thoracic, and Mediastinal Disorders, % of participants” value [6, 14] of the same molecule?
A: (17%)

Q: What about the “Serious adverse event: Respiratory, Thoracic, and Mediastinal Disorders, n (%)” value [6, 14] of the same molecule?
A: 2

Q: And the “TEAE: Gastrointestinal Disorders, n (%)” value [6, 14]?
A: 6

Q: What about the “TEAE: General Disorders and Administration Site Conditions, n (%)” value [6, 14] of the same molecule?
A: 1

Q: What about the “TEAE: Injury, Poisoning, and Procedural Complications, n (%)” value [6, 14] of the same molecule?
A: 4

Q: What about the “TEAE: Respiratory, Thoracic, and Mediastinal Disorders, n (%)” value [6, 14] of the same molecule?
A: 5

Q: And the “TEAE: Skin and Subcutaneous Tissue Disorders, n (%)” value [6, 14]?
A: 3

Q: What about the “TEAE: Vascular Disorders, n (%)” value [6, 14] of the same molecule?
A: 2

Q: And the “Study treatment discontinued due to adverse event of mood disturbance, subjects n (%)” value ([6]; Part B rivaroxaban N=64)?
A: 1 (1.6%)

Q: And the “AEs related to Study Agent, n (%)” value [6, 15]?
A: 20 (31.3%)

Q: And the “SAEs related to Study Agent, n (%)” value [6, 15]?
A: 1 (1.6%)

Q: And the “TEAEs resulting in Permanent Discontinuation of Study Agent, n (%)” value [6, 15]?
A: 2 (3.1%)

Q: What about the “All TEAEs (subjects with 1 or more), n (%)” value [6, 16] of the same molecule?
A: 55 (85.9%) and 55 (86%)

Q: What about the “All TESAEs (subjects with 1 or more serious adverse events), n (%)” value [6, 16] of the same molecule?
A: 18 (28.1%) and 18 (28%)

Q: What about the “Serious adverse event: Infections, n (%)” value [6, 16] of the same molecule?
A: 5 (8%)

Q: What about the “Serious adverse event: Pleural Effusion, n (%)” value [6, 16] of the same molecule?
A: 9 (14%)

Q: What about the “Serious adverse event: Respiratory, Thoracic, and Mediastinal Disorders, n (%)” value [6, 16] of the same molecule?
A: 9 (14%)

Q: And the “TEAE: Gastrointestinal Disorders, n (%)” value [6, 16]?
A: 19 (29.7%) and 19 (30%)

Q: What about the “TEAE: General Disorders and Administration Site Conditions, n (%)” value [6, 16] of the same molecule?
A: 17 (26.6%) and 17 (27%)

Q: What about the “TEAE: Injury, Poisoning, and Procedural Complications, n (%)” value [6, 16] of the same molecule?
A: 18 (28.1%) and 18 (28%)

Q: And the “TEAE: Respiratory, Thoracic, and Mediastinal Disorders, n (%)” value [6, 16]?
A: 29 (45.3%) and 29 (45%)

Q: What about the “TEAE: Skin and Subcutaneous Tissue Disorders, n (%)” value [6, 16] of the same molecule?
A: 19 (29.7%) and 19 (30%)

Q: What about the “TEAE: Vascular Disorders, n (%)” value [6, 16] of the same molecule?
A: 3 (4.7%) and 3 (5%)

Q: What about the “SAEs, % of subjects” value [6, 17] of the same molecule?
A: (28.1%)

Q: What about the “SAEs, No. of subjects with event” value [6, 17] of the same molecule?
A: 18/64

Q: And the New safety signals ([6]; UNIVERSE study)?
A: no new safety signals
